Source: patent publication US12133895B2, “Biodegradable functional polycarbonate nanoparticle carries for delivering molecular cargo” (International Business Machines Corporation, priority 2018, dated 2024)

Experiment: Oxidation (discoloration) of AMP in PBS
Format: physicochemical
Settings: free AMP dissolved in PBS
Description: FIG. 10 illustrates a diagram of example, non-limiting photos 1000 of a first solution of free AMP and a second solution of the second loaded polymer 602 having the exemplary structure depicted in FIG. 6 (e.g., conjugated with AMP) in accordance with one or more embodiments described herein. Repetitive description of like elements employed in other embodiments described herein is omitted for sake of brevity. As shown in the photos 1000, the right vial contains free AMP dispersed in PBS, and the left vial contains of the second loaded polymer 602 having the exemplary structure depicted in FIG. 6 (e.g., conjugated with AMP) dispersed in PBS. The various photos 1000 can show the state of the two solutions over a 360 minute time period.
Both solutions begin colorless, wherein the solutions become discolored in response to oxidation.

onset of oxidation: nearly immediately
SMILES: CN1CCc2cccc3c2[C@H]1Cc1ccc(O)c(O)c1-3 [AMP, apomorphine]
